{"source": "paper PMC11133381", "about": "“Necroptosis induced by ruthenium (II) complexes as mitochondrial disruptors” (Cell Death Discovery, 2024)", "key": {"HT29 cells [1]": {"tested_on": "HT29 cells", "assay": "TSZ (TNF-α + Z-VAD + BV6)-induced necroptosis, AK release", "format": "cell-based, human", "conditions": "Nec-1 30 μM, GSK872 10 μM, 24 h", "procedure": "As positive control for necroptosis induction, HT29 cells were treated with 20 ng/mL recombinant human TNF-α (#300-01A, PeproTech EC Ltd., London, UK), 10 μM Z-Val-Ala-Asp-fluoromethylketon (Z-VAD-FMK or Z-VAD) pan-caspase inhibitor (#ALX-260-020, Enzo Life Sciences, Farmingdale, NY, USA), and 250 nM BV6 Smac mimetic (#B4653, ApexBio, Houston, USA), L929 cells were treated with 10 ng/mL recombinant murine TNF-α (#315-01 A, PeproTech), and HepG2 cells were treated with 10 μM doxorubicin (DOXO) (#D1515, Sigma-Aldrich). […]\n(§1) For evaluation of cell death and viability, cells were plated in 96-well plates at 5 × 10^3 cells/well for next-day treatments. MTS metabolism was evaluated as an indicator of cell viability using CellTiter 96® AQueous non-radioactive cell proliferation assay (Promega, Madison, WI, USA), according to the manufacturer’s instructions. Changes in absorbance were measured at 490 nm using a GloMax®-MultiDetection System (Promega). General cell death was evaluated using the ToxiLight^TM BioAssay Kit (Lonza Walkersville Inc., Walkersville, MD, USA), by determining the quantities of adenylate kinase (AK) released from cells with permeabilized plasma membranes and present in the extracellular medium. The bioluminescent signals were recorded using also the GloMax®-MultiDetection System."}, "HT29 cells [2]": {"tested_on": "HT29 cells", "assay": "Antiproliferative MTS assay, HT29 cells, 72 h", "format": "cell-based, human", "conditions": "72 h compound incubation", "procedure": "as §1\n(§2) The primary drug screen was performed using the HCT116 and HT29 cell lines. Cells were seeded in 96-well plates at 5 × 10^3 cells/well and 24 h after, exposed to Ru-TRZ compounds and derivatives at a range of concentrations from 0.012 to 243 μM. Cell proliferation was assessed 72 h later using the MTS assay. As a secondary screen, selected hits were tested using HT29, HepG2, and AML12 wild-type cells seeded in 96-well plates at 5 × 10^3 cells/well. In the following day, cells were exposed to selected compounds at the same range of concentrations for additional 24 h. Cell death was evaluated by the ToxiLight assay. All measurements were performed in duplicate. The half-maximal effective concentration (EC50) and half-maximal inhibitory concentration (IC50) were calculated using the GraphPad Prism Software version 8.0.2 (GraphPad Software, Inc., San Diego, CA, USA) with the log (inhibitor) versus response (variable slope) function."}, "HCT116 cells": {"tested_on": "HCT116 cells", "assay": "Antiproliferative MTS assay, HCT116 cells, 72 h", "format": "cell-based, human", "conditions": "72 h compound incubation", "procedure": "as §1, §2"}, "HT29 cells [3]": {"tested_on": "HT29 cells", "assay": "Drug combination study (IC50, combination index, CompuSyn)", "format": "cell-based, human", "conditions": "combinations at 1:1 ratio", "procedure": "In drug combination studies, cells were incubated with TRZ2 combined with 5-fluorouracil (5-FU), oxaliplatin (OXA), and irinotecan (IRI) chemotherapeutics (kindly provided by Hospital Santa Maria, Lisbon, Portugal) at a ratio of 1:1. The effect of combined treatments was evaluated using the CompuSyn software 1.0 (ComboSyn, Inc. and PD Science, LLC). Briefly, the combination index (CI) is a tool to analyze the interaction between drugs allowing to distinguish between synergistic, additive, and antagonistic effects. CI values are calculated considering the concentration of drugs in combination to produce a specific effect (Fraction affected—Fa) and the concentration of drugs to produce that same effect individually. The final CI value is calculated by the average of CI values at Fa 50, 75, 90, and 95%. CI value < 1 indicates synergism while a CI value > 1 indicates antagonism. Fa-CI plot between the levels of different fractions affected against the CI values was also created using CompuSyn software to interpret the type of interactions between TRZ2 and chemotherapeutic drugs. The data points below the additivity line (CI = 1) indicate synergism."}, "HT29 cells [4]": {"tested_on": "HT29 cells", "assay": "Mitochondrial transmembrane potential (JC-1)", "format": "cell-based, human", "conditions": "2 h", "procedure": "JC-1 (Sigma-Aldrich) is a cationic dye that represents a reliable fluorescent probe for the assessment of mitochondrial transmembrane potential (ΔΨm). […] HT29 or AML12 cells were plated on a 96-well plate at 5 × 10^3 cells/well and on the next day treated with Ru-TRZ compounds (1 and 5 µM) for 2 h. Carbonyl cyanide m-chlorophenyl hydrazone (CCCP), a mitochondrial depolarizing agent, was used as positive control (200 µM; 4 h). Emitted fluorescence was measured at 530 nm and 590 nm using the GloMax®-MultiDetection System (Promega) and the ratio 590/530 emission intensity was calculated."}, "AML12 cells": {"tested_on": "AML12 cells", "assay": "Cytotoxicity by AK release (ToxiLight), AML12 hepatocytes, 24 h", "format": "cell-based, mouse", "conditions": "24 h compound incubation", "procedure": "as §1\n(§3) The primary drug screen was performed using the HCT116 and HT29 cell lines. […] Cell proliferation was assessed 72 h later using the MTS assay. […] Cell death was evaluated by the ToxiLight assay. […] The half-maximal effective concentration (EC50) and half-maximal inhibitory concentration (IC50) were calculated using the GraphPad Prism Software version 8.0.2 (GraphPad Software, Inc., San Diego, CA, USA) with the log (inhibitor) versus response (variable slope) function."}, "HT29 cells [5]": {"tested_on": "HT29 cells", "assay": "Mitochondrial ROS production (MitoSOX Red)", "format": "cell-based, human", "conditions": "10 µM, 15 min", "procedure": "Mitochondrial superoxide abundance was quantified by fluorometric quantification. Briefly, HT29 or AML12 cells were plated on a 96-well plate at 5 ×10^3 cells/well and on the next day treated with 10 µM Ru-TRZ, or vehicle control, for additional 15 min. MitoSOX™ Red (Invitrogen, Thermo Fisher Scientific) diluted 1:1000 in HBSS was added (100 μL per well) and incubated at 37 °C in a CO2 incubator for 10 min. Cells were then washed with PBS to remove the excess of dye and fluorescence intensity was measured using a Varioskan™ LUX multimode microplate reader (Thermo Scientific) with excitation and emission wavelengths of 510 and 580 nm, respectively. Fluorescence values were normalized by the cell mass content."}, "[6]": {"tested_on": "caspase-3/7 activity in HT29 cells", "assay": "Caspase-Glo 3/7 assay", "format": "cell-based, human", "conditions": "10 µM, 24 h, p < 0.001", "procedure": "To determine caspase-3/7 activity, HT29 cells were seeded in 96-well plates at 5 ×10^3 cells/well. Twenty-four hours later, cells were incubated with 10 µM Ru-TRZ, or vehicle control, for additional 24 h. Caspase-3 and -7 activation status was measured using the Caspase-Glo® 3/7 Assay (Promega), according to the manufacturer’s instructions. The luminescent signal was recorded using the GloMax®-MultiDetection System (Promega)."}, "HT29 cells [7]": {"tested_on": "HT29 cells", "assay": "Cytotoxicity by AK release (ToxiLight), HT29 cells, 24 h", "format": "cell-based, human", "procedure": "as §1, §3"}, "HepG2 cells": {"tested_on": "HepG2 cells", "assay": "Cytotoxicity by AK release (ToxiLight), HepG2 cells, 24 h", "format": "cell-based, human", "conditions": "24 h compound incubation", "procedure": "as §1, §3"}, "[8]": {"conditions": "Homo sapiens, HT-29, 24 h incubation"}}, "note": "pEC50, pIC50: −log10 of the molar value.", "data": [{"smiles": "CC(C)S(=O)(=O)c1ccc2nccc(Nc3ccc4scnc4c3)c2c1", "note": "[GSK872]", "values": [{"measurement": "Effect on TSZ-induced cell damage (AK release)", "setting": "HT29 cells [1]", "result": "significantly decreased TSZ-induced AK release"}]}, {"smiles": "N#Cc1ccc(NC(=O)COCCOCCOCCN=[N+]=[N-])cc1.O=S(=O)([O-])C(F)(F)F.[Ru+2].c1cc[cH-]c1.c1ccc(P(CCP(c2ccccc2)c2ccccc2)c2ccccc2)cc1", "note": "[TRZ8]", "values": [{"measurement": "IC50", "setting": "HT29 cells [2]", "result": 0.27, "unit": "µM"}, {"measurement": "IC50", "setting": "HCT116 cells", "result": 0.46, "unit": "µM"}]}, {"smiles": "O=C1[O][Pt]2([NH][C@@H]3CCCC[C@H]3[NH]2)[O]C1=O", "note": "[OX, oxaliplatin]", "values": [{"measurement": "pIC50", "setting": "HT29 cells [3]; 24 h incubation", "result": 4.97}]}, {"smiles": "CN(N=Nc1ccc(C#N)cc1)C(=O)c1ccccc1.O=S(=O)([O-])C(F)(F)F.[Ru+2].c1cc[cH-]c1.c1ccc(P(CCP(c2ccccc2)c2ccccc2)c2ccccc2)cc1", "note": "[TRZ4]", "values": [{"measurement": "IC50", "setting": "HT29 cells [2]", "result": 0.23, "unit": "µM"}, {"measurement": "IC50", "setting": "HCT116 cells", "result": 0.55, "unit": "µM"}]}, {"smiles": "CCc1c2c(nc3ccc(OC(=O)N4CCC(N5CCCCC5)CC4)cc13)-c1cc3c(c(=O)n1C2)COC(=O)[C@]3(O)CC", "note": "[IRI, irinotecan]", "values": [{"measurement": "pIC50", "setting": "HT29 cells [3]; [8]", "result": 4.36}]}, {"smiles": "N#Cc1ccc(NC(=O)CCOCCOCCOCCN)cc1.O=S(=O)([O-])C(F)(F)F.[Ru+2].c1cc[cH-]c1.c1ccc(P(CCP(c2ccccc2)c2ccccc2)c2ccccc2)cc1", "note": "[TRZ6]", "values": [{"measurement": "IC50", "setting": "HT29 cells [2]", "result": 3.54, "unit": "µM"}, {"measurement": "IC50", "setting": "HCT116 cells", "result": 2.42, "unit": "µM"}]}, {"smiles": "CCCC(=O)Nc1ccc(C#N)cc1.O=S(=O)([O-])C(F)(F)F.c1cc[cH-]c1.c1ccc([P]2(c3ccccc3)CC[P](c3ccccc3)(c3ccccc3)[Ru+2]2)cc1", "note": "[TRZ7]", "values": [{"measurement": "Loss of ΔΨm", "setting": "HT29 cells [4]; 1 µM, JC-1, p < 0.05", "result": "significant loss of ΔΨm"}, {"measurement": "Loss of ΔΨm", "setting": "HT29 cells [4]; 5 µM, JC-1, CCCP 200 µM 4 h as positive control", "result": "loss of ΔΨm similar to the one induced by CCCP"}, {"measurement": "IC50", "setting": "HT29 cells [2]", "result": 0.36, "unit": "µM"}, {"measurement": "pEC50", "setting": "AML12 cells", "result": 4.40}, {"measurement": "Increase of mitochondrial ROS", "setting": "HT29 cells [5]", "result": "~3", "unit": "fold"}, {"measurement": "IC50", "setting": "HCT116 cells", "result": 0.55, "unit": "µM"}, {"measurement": "Increase in caspase-3/7 activity", "setting": "[6]", "result": "up to 4 fold"}, {"measurement": "Cell death (AK release)", "setting": "HT29 cells [7]; 10 µM, 24 h, partially reverted by Z-VAD, Nec-1 and GSK872", "result": "high levels of cell death"}, {"measurement": "pEC50", "setting": "HT29 cells [7]; AK release, 24 h compound incubation", "result": 4.82}, {"measurement": "pEC50", "setting": "HepG2 cells", "result": 4.78}]}, {"smiles": "CN(C)N=Nc1ccc(C#N)cc1.O=S(=O)([O-])C(F)(F)F.c1cc[cH-]c1.c1ccc([P]2(c3ccccc3)CC[P](c3ccccc3)(c3ccccc3)[Ru+2]2)cc1", "note": "[TRZ5]", "values": [{"measurement": "IC50", "setting": "HT29 cells [2]", "result": 0.31, "unit": "µM"}, {"measurement": "IC50", "setting": "HCT116 cells", "result": 0.22, "unit": "µM"}]}, {"smiles": "O=c1[nH]cc(F)c(=O)[nH]1", "note": "[5-FU, 5-fluorouracil]", "values": [{"measurement": "pIC50", "setting": "HT29 cells [3]; [8]", "result": 4.52}]}, {"smiles": "CN1C(=O)C(Cc2c[nH]c3ccccc23)NC1=S", "note": "(centres unmarked) [Nec-1, Necrostatin-1]", "values": [{"measurement": "Effect on TSZ-induced cell damage (AK release)", "setting": "HT29 cells [1]", "result": "rescued"}]}]}
